For 14 molecules, IC50 results are on record in ChEMBL document CHEMBL3593211, “Digging Deep for New Compounds from the Compass Plant, Silphium laciniatum” (J Nat Prod, 2015).

One may read the IC50 as the concentration at which inhibition is half-maximal.

This experiment relates to NCI-H460. Nature of the experiment: Cytotoxicity against human NCI-H460 cells incubated for 72 hrs by cell-titer 96 aqueous non-radioactive cell proliferation assay. Type of experiment: functional, cell-based. The conditions noted are these: NCI-H460, 72 h.
Take `CC(=O)OC/C(=C/CO)[C@@H]1C[C@@H]2[C@@]3(C)CCCC(C)(C)[C@@H]3CC[C@@]2(C)O1`: the IC50 is above 10 µM.

Regarding `CC1(C)CCC[C@]2(C)[C@H]3C[C@@H](/C(=C\CO)CO)O[C@]3(C)CC[C@@H]12`, the IC50 is above 10 µM.

In the case of `CC(=O)OC[C@]1([C@@H]2C[C@@H]3[C@@]4(C)CCCC(C)(C)[C@@H]4CC[C@@]3(C)O2)O[C@H]1CO`, the IC50 is above 10 µM.

Regarding `CC(=O)OCC(O)(C(O)CO)[C@@H]1C[C@@H]2[C@@]3(C)CCCC(C)(C)[C@@H]3CC[C@@]2(C)O1` (some centres undefined), the IC50 was above 10 µM.

For the molecule `CC(=O)OCC(O)C(O)(CO)[C@@H]1C[C@@H]2[C@@]3(C)CCCC(C)(C)[C@@H]3CC[C@@]2(C)O1` (some centres undefined), the IC50 is above 10 µM.

Regarding `CC1(C)CCC[C@]2(C)[C@H]3C[C@@H](C(O)(CO)C(O)CO)O[C@]3(C)CC[C@@H]12` (some centres undefined), the half-inhibitory concentration (IC50) was above 10 µM.

Consider `C/C(=C\CC/C=C(\C)CC/C=C(\C)CCC(O)C(C)(C)O)C/C=C/[C@@]1(C)CC[C@@H](C(C)(C)O)O1` (some centres undefined), for which the half-inhibitory concentration (IC50) was determined as 9 µM.

On to `C/C(=C\CCC/C(C)=C/C(=O)C[C@@]1(C)CC[C@@H](C(C)(C)O)O1)CC/C=C(\C)CCC(O)C(C)(C)O` (some centres undefined), for which the IC50 was 6 µM.

On to `CC1(C)CC[C@]2(C(=O)O)CC[C@]3(C)C(=CC[C@@H]4[C@@]5(C)CC[C@H](O[C@@H]6O[C@H](C(=O)O)[C@@H](O)[C@H](O)[C@H]6OC6O[C@H](CO)[C@@H](O)[C@H](O)[C@H]6O)C(C)(C)[C@@H]5CC[C@]43C)[C@@H]2C1` (some centres undefined), for which the IC50 was 7 µM.

For `CC1(C)CCC[C@]2(C)[C@H]3C[C@@H]([C@@]4(CO)O[C@H]4CO)O[C@]3(C)CC[C@@H]12`, the IC50 was above 10 µM.

On to `CC(=O)OC[C@@]1([C@@H]2C[C@@H]3[C@@]4(C)CCCC(C)(C)[C@@H]4CC[C@@]3(C)O2)O[C@@H]1CO`, for which the IC50 was above 10 µM.

`CC1(C)CCC[C@]2(C)[C@H]3C[C@@H]([C@]4(CO)O[C@@H]4CO)O[C@]3(C)CC[C@@H]12`: the IC50 is above 10 µM.

`C/C(=C\CC/C=C(\C)CC/C=C(\C)CC[C@@H](O)C(C)(C)O)CC/C=C(\C)CC[C@@H](O)C(C)(C)O`: the IC50 turned out to be 7 µM.

Consider `CC1(C)CC[C@]2(C(=O)O)CC[C@]3(C)C(=CC[C@@H]4[C@@]5(C)CC[C@H](O[C@@H]6O[C@H](C(=O)O)[C@@H](O)[C@H](O)[C@H]6O)C(C)(C)[C@@H]5CC[C@]43C)[C@@H]2C1`, for which the IC50 was 6 µM.
